≈ marks a conversion by molar mass, not a printed value. Where two headings read alike, the source gives them in different places.
How the values were obtained:
[1] = Solubility in water and aqueous acid media; assay type: physicochemical; details: thermodynamic from solid
Protocol: A weighed sample is treated with aliquots of the test solvent at room temperature or elevated temperature. Complete dissolution of the test material is determined by visual inspection. Solubility is estimated based on the total solvent used to provide complete dissolution. The actual solubility may be greater than the value calculated because of the use of solvent aliquots that were too large or due to a slow rate of dissolution. […] If complete dissolution is achieved as a result of only one aliquot addition, the solubility is expressed as “greater than”. Solubility of a salt may be expressed as the mass of salt dissolved per unit volume of solution, (denoted as, for example, “mg/mL”), or as the free base equivalent (denoted as, for example, “mgA/mL”).
(§1) Solubility and Dissolution Rate Data.

[2] = for Water content: 3 days, KF
Protocol: (§2) Stress Experiments. Solids are stressed under different temperature or relative humidity (RH) environments for a measured time period. Specific RH values are achieved by placing the sample inside sealed chambers containing saturated salt solutions, as known in the art. The salt solutions are selected and prepared following an ASTM standard procedure. Samples are analyzed by XRPD immediately after removal from the stress environment.
Modulated differential scanning calorimetry data are obtained on a TA Instruments differential scanning calorimeter 2920 equipped with a refrigerated cooling system (RCS). The sample is placed into an aluminum DSC pan, and the weight is accurately recorded. The pan is covered with a lid with is either crimped or uncrimped. MDSC data are obtained using a modulation amplitude of +/−0.8° C. and a 60 second period with an underlying heating rate of about 2° C./min. The temperature and the heat capacity are calibrated using indium metal and sapphire as the calibration standards, respectively. The reported glass transition temperature is obtained from the inflection of the step change in the reversible heat flow versus temperature curve.
Physical Stability. Physical stability measurements were performed on the amorphous form of the mono-HCl salt of Compound A1. The amorphous HCl salt prepared by spray drying was set down under two conditions (40° C./75% RH and 25° C./60% RH) for physical stability studies.
To investigate the impact of water on the amorphous mono-HCl salt, the material was stored at various RH conditions controlled by saturated salt solutions. Each material was checked by PLM (morphology), KF (water content), and mDSC (Tg value) after 3 days.

[3] = HPLC area %, listed as Amorphous Mono-HCl Salt of Compound A1
Protocol: as §2
Analyses are carried out on an Agilent® model 1100 high performance liquid chromatograph using gradient elution on a reversed phase column utilizing ultraviolet (UV) detection. Approximately 25 mg of the sample is weighed accurately and dissolved in methanol/water/trifluoroacetic acid (35:65:0.05) to a volume of 50 mL. The sample solution is analysed using the conditions specified below:
The content of the drug and related substances are quantified by area (%).
Chemical Stability. The chemical stability of Form I of the mono-HCl salt of Compound A1 was assessed by stressing the material at various temperature/relative humidity/light conditions, then analyzing by HPLC.
Chemical Stability Data. The chemical stability of a sample of Form I of the sesquifumarate salt of Compound A1 was assessed by stressing the material at various temperature/relative humidity/light conditions, then analyzing by HPLC.

[4] = Solubility in simulated biological media; assay type: physicochemical; details: thermodynamic from solid, mean ± SD, n = 2
Description: as §1
(§3) Solubility and Dissolution Rate Data. […]

[5] = Equilibrium solubility at 25° C.; assay type: physicochemical; details: thermodynamic from solid
Description: as §3

[6] = Dissociation constant (pKa); assay type: physicochemical; details: piperazine nitrogen of free base
rat = experiment: Punished responding procedure (modified Geller-Seifter conflict test); details: for Rate of Responding: Punished responding / Rate of Responding: Unpunished responding: 60 minute pretreatment
Description: Method. In the conflict test, hungry animals were trained to lever-press for food delivery in a standard operant chamber under 2 conditions. In the first condition, referred to as the unsuppressed component, food was delivered on average after 17 lever-presses were made (also called a VR17 schedule of reinforcement). In the second condition, referred to as the suppressed component and signaled by flashing lights inside the operant chamber, food was also delivered following an average of 17 lever-presses, but electric shock was additionally delivered to the floor of the cage under a separate VR17 schedule. Daily sessions consisted of 5 alternating presentations of each component type: suppressed (3 minutes in duration) and unsuppressed (2 minutes in duration). The number of lever presses emitted in the suppressed component was obviously low relative to the unsuppressed component.
Drug Administration and Preparation. […] Monday and Wednesday were washout/baseline days.
Apparatus. Standard 2-lever operant chambers were used (Med Associates). The chambers were fitted with 2 retractable response levers and a stimulus lamp over each of the 2 levers. A pellet dispenser delivered 45 mg food pellets, (Bio Serv) to a cup located inside of the chamber below and between the 2 response levers. A lamp at the top and back of the chamber served as houselights. The grid floors of the operant chambers were interfaced to shock generators and scramblers (Med Associates). All events in the chambers were controlled and monitored by a microprocessor.
Procedures. There were 2 components in the procedure: 1) an unsuppressed responding component (unpunished) with 2 minutes in duration; and 2) a suppressed responding component (punished) with 3 minutes in duration.
In the unpunished component, the houselights and both stimulus lamps over the response levers were turned on, the lever on the left-hand side of the chamber extended, and a food pellet was delivered following an average of 17 responses on the lever in the chamber (range 3 to 40 responses)—a variable-ratio 17 schedule (VR17).
In the punished component (which followed the unpunished component), the right-hand lever was extended into the chamber; the stimulus lamps and houselights were turned on and off at 1 second intervals, in succession, which served as a cue for this component; and food was available under a VR17 schedule, but was accompanied by an electrical current (0.5 second duration) that was delivered to the grid floor of the chamber under an independent VR17 schedule. The level of the current was adjusted for each individual subject until responding was reduced in the punished component to a level that was about 5% to 10% that of the unpunished component, and ranged from 0.2 mA to 0.75 mA. Unpunished and punished components were separated by 10 second time-out periods in which both response levers were retracted and all stimulus lamps turned off. 2 minute unpunished and 3 minute punished components alternated until 5 of each were completed. Daily sessions always began with the unpunished responding component. […] Several doses were tested on a given test day in different subjects. Each dose, then, was tested in different sub-set of rats.
Data Analysis. The dependent variables recorded were the rate of responding in unpunished and punished components (total responses/total time under the component) and the number of shocks delivered.

[7] = Partition coefficient LogD; assay type: physicochemical; details: pH 7.4; free base
[8] = 0.1M phosphate buffer, pH 7.5, aqueous buffer, initial pH 7.5
[9] = FeSSIF (fed-state simulated intestinal fluid), pH 5.03, fessif, initial pH 5.03
[10] = SGF (simulated gastric fluid), pH 1.3, simulated gastric fluid, initial pH 1.3
[11] = simulated gastric fluid (SGF), pH 1.3, simulated gastric fluid, SGF (simulated gastric fluid), initial pH 1.3

Question: Which solubility ([1]; 0.1M phosphate acid, pH 3.3, aqueous buffer, 0.1M phosphate acid, pH=3.3, read-out: solubility in 0.1M phosphate acid) does the source give for `CCN(CC)C(=O)c1ccc([C@H](c2cccc(N)c2)N2CCN(Cc3ccc(F)cc3)CC2)cc1` [4-{(R)-(3-aminophenyl)[4-(4-fluorobenzyl)piperazin-1-yl]methyl}-N,N-diethylbenzamide] here?
Answer: > 40 mg/mL

Question: What about the solubility ([1]; 0.1M phosphate acid, pH 3.5, aqueous buffer, 0.1M phosphate acid, pH=3.5, read-out: solubility in 0.1M phosphate acid) of the same compound?
Answer: 12 mg/mL (≈ 25.3 mM)

Question: And the solubility ([1]; 0.1 M phosphoric acid, pH 3.3, aqueous buffer, ambient temperature, pH of about 3.3 (0.1 M phosphoric acid), read-out: solubility in water (0.1 M phosphoric acid))?
Answer: > 40 mg/mL

Question: And the solubility ([1]; 0.1 M phosphoric acid, pH 3.5, aqueous buffer, ambient temperature, pH of about 3.5 (0.1 M phosphoric acid), read-out: solubility in water (0.1 M phosphoric acid))?
Answer: ~12 mg/mL (≈ 25.3 mM)

Question: What about the solubility ([1]; 0.1N HCl, pH 2, simulated gastric fluid, 0.1N HCl, pH about 2, read-out: solubility in 0.1N HCl) of the same compound?
Answer: 24.9 mg/mL (≈ 52.5 mM)

Question: What about the solubility ([1]; water, pH 3.8, water, ambient temperature, water with a pH of about 3.8, read-out: solubility in water) of the same compound?
Answer: ~24 mg/mL (≈ 50.6 mM)

Question: What about the solubility ([1]; water, pH 3.8, water, water, pH=3.8, read-out: solubility in water) of the same compound?
Answer: 24 mg/mL (≈ 50.6 mM)

Question: What about the solubility ([1]; water, pH 4.2, water, ambient temperature, water with a pH of about 4.2, read-out: solubility in water) of the same compound?
Answer: > 41 mg/mL

Question: And the solubility ([1]; water, pH 4.2, water, water, pH=4.2, read-out: solubility in water)?
Answer: > 41 mg/mL

Question: And the physical stability [2]?
Answer: physically stable

Question: What about the “physical stability (appearance)” value [2] of the same compound?
Answer: deliquesced and became brown in color

Question: What about the Water content ([2]; 23.1% RH (saturated KOAc)) of the same compound?
Answer: 3.2%

Question: And the Water content ([2]; 43.3% RH (saturated K2CO3))?
Answer: 5.0%

Question: And the Water content ([2]; 54.4% RH (saturated Mg(NO3)2))?
Answer: 6.2%

Question: And the Water content ([2]; 75.5% RH (saturated NaCl))?
Answer: 8.2%

Question: What about the Water content ([2]; 85.1% RH (saturated KCl), listed as Amorphous Mono-HCl Salt of Compound A1) of the same compound?
Answer: 9.5%

Question: What about the Water content ([2]; 85.1% RH (saturated KCl), listed as amorphous mono-HCl salt) of the same compound?
Answer: 9.5%

Question: And the Water content ([2]; 97.3% RH (saturated K2SO4))?
Answer: 14.7%

Question: What about the “water content (Karl-Fisher) of the resulting material” value ([2]; after 17 days at 25° C./60% RH (open)) of the same compound?
Answer: 6.1%

Question: And the “water content of the initial material” value ([2]; initial material, before storage)?
Answer: about 2.8%

Question: What about the “% Purity after 60° C./80% RH, 2 wks” value ([3]; 60° C./80% RH, 2 weeks) of the same compound?
Answer: 94.4%

Question: And the “% Purity after 60° C./80% RH, 4 wks” value ([3]; 60° C./80% RH, 4 weeks)?
Answer: 94.5%

Question: What about the “% Purity after 80° C., 2 wks” value ([3]; 80° C., 2 weeks) of the same compound?
Answer: 98.7%

Question: And the “% Purity after 80° C., 4 wks” value ([3]; 80° C., 4 weeks)?
Answer: 98.6%

Question: What about the “Purity after Photostability 3X ICH conditions” value ([3]; Photostability 3X ICH conditions) of the same compound?
Answer: 82.3%

Question: What about the “Initial Purity” value ([3]; initial, before storage) of the same compound?
Answer: 98.8%

Question: What about the solubility at 3 h [4, 8] of the same compound?
Answer: 0.29 mg/mL (≈ 0.611 mM)

Question: And the solubility at 24 h [4, 8]?
Answer: 0.1 mg/mL (≈ 0.211 mM)

Question: And the solubility at 3 h [4, 9]?
Answer: 3.4 mg/mL (≈ 7.16 mM)

Question: And the solubility at 24 h [4, 9]?
Answer: 3.06 mg/mL (≈ 6.45 mM)

Question: What about the solubility at 3 h [4, 10] of the same compound?
Answer: 23 mg/mL (≈ 48.5 mM)

Question: What about the solubility at 24 h [4, 10] of the same compound?
Answer: 22 mg/mL (≈ 46.4 mM)

Question: And the solubility at 3 h [4, 11]?
Answer: 23.1 ± 0.12 mg/mL (≈ 48.7 mM)

Question: And the solubility at 24 h [4, 11]?
Answer: 21.9 ± 0.23 mg/mL (≈ 46.1 mM)

Question: And the solubility thermodynamic ([5]; 0.1 M citrate buffer, aqueous buffer, pH 4.5, Citrate 0.1M)?
Answer: 15600 µg/mL (≈ 32.9 mM)

Question: And the solubility thermodynamic ([5]; 0.1 M phosphate buffer, aqueous buffer, pH 7.8, Phosphate 0.1M)?
Answer: 160 µg/mL (≈ 0.337 mM)

Question: What about the solubility thermodynamic ([5]; aqueous buffer, 0.1N NaOH) of the same compound?
Answer: 92 µg/mL (≈ 0.194 mM)

Question: What about the solubility thermodynamic ([5]; simulated gastric fluid, 0.1N HCl) of the same compound?
Answer: 21600 µg/mL (≈ 45.5 mM)

Question: What about the solubility thermodynamic ([5]; Pure water) of the same compound?
Answer: 8700 µg/mL (≈ 18.3 mM)

Question: What does the source list for `CCN(CC)C(=O)c1ccc([C@H](c2cccc(N)c2)N2CCN(Cc3ccc(F)cc3)CC2)cc1` [Compound A1, 4-{(R)-(3-aminophenyl)[4-(4-fluorobenzyl)piperazin-1-yl]methyl}-N,N-diethylbenzamide]?
Answer: pKa [6]: 7.26; sedative/hyperactive properties (rat; observations of test subjects in their home cage): does not possess sedative/hyperactive properties; efficacy in the model (rat; rat, 0.21 μmol/kg): not effective; Percent of Control: Punished responding (rat; rat, 0.21 μmol/kg by mouth): 107 ± 19.3% of Control; Percent of Control: Unpunished responding (rat; rat, 0.21 μmol/kg by mouth): 103 ± 1.63% of Control; Rate of Responding: Punished responding (rat; rat, 0.21 μmol/kg by mouth): 0.11 ± 0.02; Rate of Responding: Unpunished responding (rat; rat, 0.21 μmol/kg by mouth): 2.06 ± 0.11; Percent of Control: Punished responding (rat; rat, 0.63 μmol/kg by mouth): 273 ± 39.2% of Control; Percent of Control: Unpunished responding (rat; rat, 0.63 μmol/kg by mouth): 92.1 ± 5.12% of Control; Rate of Responding: Punished responding (rat; rat, 0.63 μmol/kg by mouth): 0.24 ± 0.03; Rate of Responding: Unpunished responding (rat; rat, 0.63 μmol/kg by mouth): 2.02 ± 0.14; Percent of Control: Punished responding (rat; rat, 2.1 μmol/kg by mouth): 298 ± 132% of Control; Percent of Control: Unpunished responding (rat; rat, 2.1 μmol/kg by mouth): 106 ± 5.60% of Control; Rate of Responding: Punished responding (rat; rat, 2.1 μmol/kg by mouth): 0.18 ± 0.04; Rate of Responding: Unpunished responding (rat; rat, 2.1 μmol/kg by mouth): 1.95 ± 0.15; increase in punished responding (maximally efficacious dose) (rat; rat, 2.11 μmol/kg): about 300%; Percent of Control: Punished responding (rat; rat, 6.3 μmol/kg by mouth): 207 ± 67.2% of Control; Percent of Control: Unpunished responding (rat; rat, 6.3 μmol/kg by mouth): 106 ± 2.94% of Control; Rate of Responding: Punished responding (rat; rat, 6.3 μmol/kg by mouth): 0.17 ± 0.03; Rate of Responding: Unpunished responding (rat; rat, 6.3 μmol/kg by mouth): 1.92 ± 0.13; Percent of Control: Punished responding (rat; rat, 21.1 μmol/kg by mouth): 272 ± 100% of Control; Percent of Control: Unpunished responding (rat; rat, 21.1 μmol/kg by mouth): 95.5 ± 4.08% of Control; Rate of Responding: Punished responding (rat; rat, 21.1 μmol/kg by mouth): 0.20 ± 0.04; Rate of Responding: Unpunished responding (rat; rat, 21.1 μmol/kg by mouth): 1.69 ± 0.12; effect on unpunished responding (rat; rat, at the doses tested (0.21 to 21.1 μmol/kg)): did not significantly decrease; logD [7]: 2.53
